Data: paper doi:10.1101/2022.03.24.485529v3, “Distinct bile salt hydrolase substrate preferences dictate C. difficile pathogenesis” (biorxiv, 2022)

Assays:
LingBSH = biological target: T1, LingBSH (Limosilactobacillus ingluviei, UniProt A0A0R1U3N2); experiment: deconjugation of AA-CA pool by LC-IMS-MS; type: biochemical; conditions: pool of CA conjugated to 22 amino acids
T1 construct: gene FC43_GL000624; heterologously expressed and purified; homotetramer; species inferred from the abbreviation Ling
T1 sequence (A0A0R1U3N2 2-327): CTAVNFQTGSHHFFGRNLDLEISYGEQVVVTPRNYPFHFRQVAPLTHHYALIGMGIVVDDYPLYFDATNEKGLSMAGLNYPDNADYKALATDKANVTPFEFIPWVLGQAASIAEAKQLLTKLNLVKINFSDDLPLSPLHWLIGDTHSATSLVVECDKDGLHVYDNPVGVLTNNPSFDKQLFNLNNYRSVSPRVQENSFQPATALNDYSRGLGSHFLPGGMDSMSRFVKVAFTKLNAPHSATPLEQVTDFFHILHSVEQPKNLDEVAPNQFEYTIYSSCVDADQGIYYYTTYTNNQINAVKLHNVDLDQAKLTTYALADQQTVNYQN

LgasBSHa = biological target: T2, LgasBSHa (Lactobacillus gasseri, UniProt A0A805Z5R7); experiment: X-ray crystallography; type: binding; conditions: active site
T2 construct: gene bsh; heterologously expressed and purified; homotetramer, neighbouring monomer donates loop to active site
T2 sequence (A0A805Z5R7 2-316): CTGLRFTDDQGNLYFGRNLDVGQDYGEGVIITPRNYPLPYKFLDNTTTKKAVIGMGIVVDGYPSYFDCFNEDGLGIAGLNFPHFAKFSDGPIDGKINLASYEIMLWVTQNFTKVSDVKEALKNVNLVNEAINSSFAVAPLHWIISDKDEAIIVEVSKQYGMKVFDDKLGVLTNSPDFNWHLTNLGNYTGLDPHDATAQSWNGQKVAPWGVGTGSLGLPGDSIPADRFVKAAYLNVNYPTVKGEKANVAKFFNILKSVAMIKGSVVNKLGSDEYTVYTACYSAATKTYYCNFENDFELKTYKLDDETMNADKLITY

**Q.** With C[C@H](NC(=O)CC[C@@H](C)[C@H]1CC[C@H]2[C@@H]3[C@H](O)C[C@@H]4C[C@H](O)CC[C@]4(C)[C@H]3C[C@H](O)[C@]12C)C(=O)O [Ala-CA] as the compound, how does the “% deconjugation after 5 minutes” value (LingBSH; also purified Ala-CA (enzyme not named in that sentence)) read?
**A.** Ala and Ser-conjugated BAs are efficiently processed

**Q.** Which X-ray crystallography (LgasBSHa; ternary complex with taurine) does the source give for C[C@H](CCC(=O)O)[C@H]1CC[C@H]2[C@@H]3[C@H](O)C[C@@H]4C[C@H](O)CC[C@]4(C)[C@H]3CC[C@]12C [CDCA] here?
**A.** LgasBSHa was resolved in complexes with taurine or taurine plus CDCA

**Q.** For C[C@H](CCC(=O)N[C@@H](CO)C(=O)O)[C@H]1CC[C@H]2[C@@H]3[C@H](O)C[C@@H]4C[C@H](O)CC[C@]4(C)[C@H]3C[C@H](O)[C@]12C [Ser-CA], which “% deconjugation after 5 minutes” value (LingBSH; also purified Ser-CA (enzyme not named in that sentence)) is on record?
**A.** Ala and Ser-conjugated BAs are efficiently processed

**Q.** How did the X-ray crystallography (LgasBSHa; complexes with taurine alone and with taurine plus CDCA) turn out when NCCS(=O)(=O)O [taurine] was run?
**A.** LgasBSHa was resolved in complexes with taurine or taurine plus CDCA
